Test results from PMC11010885, “Functional Analysis and Tissue-Specific Expression of Calcitonin and CGRP with RAMP-Modulated Receptors CTR and CLR in Chickens” (Animals : an Open Access Journal from MDPI, 2024).

Experiments:
Type in all cases: cell-based
chicken CLR [1] = test: Calcium pGL3-NFAT-RE-luciferase reporter assay, CLR + pcDNA in CHO cells; conditions: 10^−12 M to 10^−6 M, 6 h, mean ± SEM, n = 3, read-out: EC50, calcium signaling pathway
Experimental: (§1) Chinese hamster ovary (CHO) cells were cultured in Dulbecco’s modified Eagle’s medium (DMEM) supplemented with 10% (vol/vol) fetal bovine serum (HyClone, Logan, UT, USA), 100 U/mL penicillin G and 100 μg/mL streptomycin. The cells were maintained in a 90 mm culture dish (Nunc, Rochester, NY, USA) and incubated at 37 °C with 5% CO2. To investigate the signaling pathways associated with each receptor in CHO cells, three different reporter systems (pGL3-CRE-luciferase, pGL4-SRE-luciferase, and pGL3-NFAT-RE-luciferase) were utilized to monitor intracellular cAMP/PKA and MAPK/ERK signaling pathways and calcium mobilization of the activated receptors, respectively.
(§2) Prior to the transfection procedure, the cells were initially cultured in 6-well plates (Nunc, Rochester, NY, USA), maintaining a seeding density of approximately 300,000 cells per well. Upon achieving approximately 70% confluence, the cells underwent a co-transfection process. […] The fluorescence activity of the luciferase in each treatment group was measured using a multimode microplate reader (TriStar LB941, Berthold Technologies, Bad Wildbad, Germany). Finally, the fluorescence activity of each treatment group was expressed as a relative increase ratio compared to the control group.

chicken CLR + RAMP1 [2] = test: Western blot CREB phosphorylation, CLR + RAMP1 in CHO cells; conditions: 10 nM, 10 min, n = 3
Experimental: To assess whether the activation of chicken CTR and CLR, along with the presence of RAMPs, can augment the phosphorylation levels of cAMP response element-binding protein (CREB), 200 ng of CTR or CLR expression plasmids were combined with 1000 ng of chicken RAMPs or an empty pcDNA3.1 (+) vector in a 100 μL buffer. The resulting mixture was then transfected into CHO cells in a 12-well plate (Nunc, Rochester, NY, USA) using 3.6 μL of PEI MAX transfection reagent. After a 24 h incubation period, the cells were exposed to chicken CT (10 nM) or CGRP (10 nM) for 10 min. Subsequently, the culture medium was removed, and the cells were lysed according to the manufacturer’s instructions. Western blot analysis was performed to quantify the levels of CREB and phosphorylated CREB (p-CREB). The optical densities were analyzed and normalized using the software, ImageJ 1.52a (National Institutes of Health, Bethesda, MD, USA). The relative expression of p-CREB/CREB was determined by calculating the ratio of the optical density to that of the control without peptide treatment (0 min).

[3] = system: chicken CTR in the absence or presence of RAMPs; test: cAMP/PKA pGL3-CRE-luciferase reporter assay, CTR without and with RAMPs compared
Experimental: as §1
(§3) Prior to the transfection procedure, the cells were initially cultured in 6-well plates (Nunc, Rochester, NY, USA), maintaining a seeding density of approximately 300,000 cells per well. Upon achieving approximately 70% confluence, the cells underwent a co-transfection process. This procedure entailed the introduction of 700 ng of various luciferase reporter constructs (namely, pGL3-CRE-luciferase, pGL4-SRE-luciferase, or pGL3-NFAT-RE-luciferase) combined with 200 ng of a specific receptor plasmid (CTR or CLR) and 1000 ng of either RAMP1, RAMP2, RAMP3 expression plasmids, or alternatively, the empty pcDNA3.1 (+) vector. A volume of 5.7 μL of PEI MAX was used in 200 μL of buffer following the manufacturer’s protocol. After 24 h of incubation, the transfected CHO cells were subcultured in 96-well plates and passaged for an additional 24 h before peptide treatment. Then, the medium from the 96-well plates was removed, and the cells were treated with chicken CT/CGRP-containing medium (or untreated medium as a control) at concentrations ranging from 10^−12 M to 10^−6 M for 6 h. […] The fluorescence activity of the luciferase in each treatment group was measured using a multimode microplate reader (TriStar LB941, Berthold Technologies, Bad Wildbad, Germany). Finally, the fluorescence activity of each treatment group was expressed as a relative increase ratio compared to the control group.

chicken CTR + RAMP2 [4] = test: cAMP/PKA pGL3-CRE-luciferase reporter assay, CTR + RAMP2 in CHO cells; conditions: 10^−12 M to 10^−6 M, 6 h, mean ± SEM, n = 3, read-out: EC50, cAMP/PKA signaling pathway
Experimental: as §1, §2

chicken CLR + RAMP2 [5] = test: cAMP/PKA pGL3-CRE-luciferase reporter assay, CLR + RAMP2 in CHO cells; conditions: 10^−12 M to 10^−6 M, 6 h, mean ± SEM, n = 3, read-out: EC50, cAMP/PKA signaling pathway
Experimental: as §1, §2

chicken CLR + RAMP3 = test: cAMP/PKA pGL3-CRE-luciferase reporter assay, CLR + RAMP3 in CHO cells; conditions: 10^−12 M to 10^−6 M, 6 h, mean ± SEM, n = 3, read-out: EC50, cAMP/PKA signaling pathway
Experimental: as §1, §2

chicken CTR + RAMP2 [6] = test: MAPK/ERK pGL4-SRE-luciferase reporter assay, CTR + RAMP2 in CHO cells; conditions: 10^−12 M to 10^−6 M, 6 h, mean ± SEM, n = 3, read-out: EC50, MAPK/ERK signaling pathway
Experimental: as §1, §2

chicken CTR + RAMP1 [7] = test: MAPK/ERK pGL4-SRE-luciferase reporter assay, CTR + RAMP1 in CHO cells; conditions: 10^−12 M to 10^−6 M, 6 h, mean ± SEM, n = 3, read-out: EC50, MAPK/ERK signaling pathway
Experimental: as §1, §2

chicken CLR [8] = test: cAMP/PKA pGL3-CRE-luciferase reporter assay, CLR + pcDNA in CHO cells
Experimental: as §1
Prior to the transfection procedure, the cells were initially cultured in 6-well plates (Nunc, Rochester, NY, USA), maintaining a seeding density of approximately 300,000 cells per well. Upon achieving approximately 70% confluence, the cells underwent a co-transfection process. This procedure entailed the introduction of 700 ng of various luciferase reporter constructs (namely, pGL3-CRE-luciferase, pGL4-SRE-luciferase, or pGL3-NFAT-RE-luciferase) combined with 200 ng of a specific receptor plasmid (CTR or CLR) and 1000 ng of either RAMP1, RAMP2, RAMP3 expression plasmids, or alternatively, the empty pcDNA3.1 (+) vector. A volume of 5.7 μL of PEI MAX was used in 200 μL of buffer following the manufacturer’s protocol. After 24 h of incubation, the transfected CHO cells were subcultured in 96-well plates and passaged for an additional 24 h before peptide treatment. Then, the medium from the 96-well plates was removed, and the cells were treated with chicken CT/CGRP-containing medium (or untreated medium as a control) at concentrations ranging from 10^−12 M to 10^−6 M for 6 h. Subsequently, the cells were harvested for luciferase assays by lysing them in 1 × passive lysis buffer. To measure the luciferase activity of the cell lysate, 40 μL of luciferase assay reagent (Promega, Madison, WI, USA) was mixed with the cell lysate following the manufacturer’s instructions. The fluorescence activity of the luciferase in each treatment group was measured using a multimode microplate reader (TriStar LB941, Berthold Technologies, Bad Wildbad, Germany). Finally, the fluorescence activity of each treatment group was expressed as a relative increase ratio compared to the control group.

chicken CLR + RAMP1 [9] = test: cAMP/PKA pGL3-CRE-luciferase reporter assay, CLR + RAMP1 in CHO cells
Experimental: as §1, §3

chicken CLR + RAMP1 [10] = test: Calcium pGL3-NFAT-RE-luciferase reporter assay, CLR + RAMP1 in CHO cells; conditions: 10^−12 M to 10^−6 M, 6 h, mean ± SEM, n = 3, read-out: EC50, calcium signaling pathway
Experimental: as §1, §2

chicken CLR + RAMP2 [11] = test: MAPK/ERK pGL4-SRE-luciferase reporter assay, CLR + RAMP2 in CHO cells; conditions: 10^−12 M to 10^−6 M, 6 h, mean ± SEM, n = 3, read-out: EC50, MAPK/ERK signaling pathway
Experimental: as §1, §2

chicken CTR + RAMP1 [12] = test: Calcium pGL3-NFAT-RE-luciferase reporter assay, CTR + RAMP1 in CHO cells; conditions: 10^−12 M to 10^−6 M, 6 h, mean ± SEM, n = 3, read-out: EC50, calcium signaling pathway
Experimental: as §1, §2

chicken CTR + RAMP3 = test: Calcium pGL3-NFAT-RE-luciferase reporter assay, CTR + RAMP3 in CHO cells; conditions: 10^−12 M to 10^−6 M, 6 h, mean ± SEM, n = 3, read-out: EC50, calcium signaling pathway
Experimental: as §1, §2

## calcitonin gene-related peptide [CGRP]
Chicken CLR [1]
  EC50: > 100 nM
Chicken CLR + RAMP1 [2]
  CREB phosphorylation (p-CREB/CREB vs. control, 0 min): significantly enhanced the CREB phosphorylation
[3]; CHO cells, pGL3-CRE-luciferase
  effect of RAMP co-expression on sensitivity of CTR: co-expression of RAMP1 or RAMP3 significantly increased the sensitivity of CTR to CGRP
[3]; CTR without/with RAMPs
  rank order of receptor sensitivity: CTR + RAMP1 ≈ CTR + RAMP3 > CTR + RAMP2 ≈ CTR
Chicken CTR + RAMP2 [4]
  EC50: 1.63 ± 0.19 nM
Chicken CLR + RAMP2 [5]
  EC50: 40.9 ± 6.76 nM
Chicken CLR + RAMP3
  EC50: 1.84 ± 0.73 nM
Chicken CTR + RAMP2 [6]
  EC50: 10.4 ± 1.12 nM
Chicken CTR + RAMP1 [7]
  EC50: 0.41 ± 0.08 nM
Chicken CLR [8]; CLR + pcDNA, CHO cells, pGL3-CRE-luciferase, 10^−12 M to 10^−6 M, 6 h, mean ± SEM, n = 3, read-out: EC50, cAMP/PKA signaling pathway
  EC50: > 100 nM
Chicken CLR [8]; independent CLR
  activation (cAMP production), in words: no effect on CLR
Chicken CLR + RAMP1 [9]; CLR + RAMP1, CHO cells, pGL3-CRE-luciferase, 10^−12 M to 10^−6 M, 6 h, mean ± SEM, n = 3, read-out: EC50, cAMP/PKA signaling pathway
  EC50: 0.26 ± 0.03 nM
Chicken CLR + RAMP1 [9]; CLR in the presence of RAMP1
  EC50 of CGRP relative to CT: approximately tenfold lower than CT
Chicken CLR + RAMP1 [10]
  EC50: 0.15 ± 0.11 nM
Chicken CLR + RAMP2 [11]
  EC50: 90.9 ± 17.4 nM
Chicken CTR + RAMP1 [12]
  EC50: > 100 nM
Chicken CTR + RAMP3
  EC50: > 100 nM
